# Results taken from patent US20120122860A1, “SOLID FORMS OF SULFONAMIDES AND AMINO ACIDS” (Plexxikon, Inc., priority 2009, published 2012).
# What was measured:
# C-Raf = C-Raf (Homo sapiens, UniProt P04049); experiment: Kinase activity assay, C-Raf
# Kit = Kit (Homo sapiens, UniProt P10721); experiment: Kinase activity assay, Kit
# Kdr = Kdr (Homo sapiens, UniProt P35968); experiment: Kinase activity assay, Kdr
# TEC = target: T1, TEC (Homo sapiens, UniProt P42680); experiment: Kinase activity assay, TEC
# T1 sequence (P42680 1-631): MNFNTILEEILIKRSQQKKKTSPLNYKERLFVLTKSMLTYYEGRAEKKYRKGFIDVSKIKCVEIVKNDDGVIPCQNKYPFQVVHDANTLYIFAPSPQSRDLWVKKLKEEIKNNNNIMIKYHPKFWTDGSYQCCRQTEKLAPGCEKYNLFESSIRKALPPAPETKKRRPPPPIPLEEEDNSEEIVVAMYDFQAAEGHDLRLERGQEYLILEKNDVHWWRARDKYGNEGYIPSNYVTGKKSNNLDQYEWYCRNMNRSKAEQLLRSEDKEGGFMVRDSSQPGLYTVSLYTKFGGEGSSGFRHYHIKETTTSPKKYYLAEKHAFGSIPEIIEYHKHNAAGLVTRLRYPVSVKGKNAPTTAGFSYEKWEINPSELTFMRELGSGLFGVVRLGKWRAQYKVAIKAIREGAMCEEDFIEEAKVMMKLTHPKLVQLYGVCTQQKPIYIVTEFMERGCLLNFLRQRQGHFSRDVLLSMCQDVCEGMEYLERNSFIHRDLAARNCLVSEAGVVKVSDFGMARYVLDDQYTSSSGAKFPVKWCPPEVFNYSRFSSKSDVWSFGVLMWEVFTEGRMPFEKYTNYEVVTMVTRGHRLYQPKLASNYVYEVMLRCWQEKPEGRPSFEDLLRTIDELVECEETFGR
# Btk = Btk (Homo sapiens, UniProt Q06187); experiment: Kinase activity assay, Btk
# B-Raf V600E = B-Raf V600E (Homo sapiens, UniProt P15056, V600E); experiment: Kinase activity assay, B-Raf V600E; format: biochemical; conditions: read-out: activity toward kinase B-Raf V600E, IC50
# B-Raf = B-Raf (Homo sapiens, UniProt P15056); experiment: Kinase activity assay, B-Raf; format: biochemical; conditions: read-out: activity toward kinase B-Raf, IC50
# MAP4K4 = MAP4K4 (Homo sapiens, UniProt O95819); experiment: Kinase activity assay, MAP4K4
# Fms = Fms (Homo sapiens, UniProt P07333); experiment: Kinase activity assay, Fms
# A-Raf = target: T2, A-Raf (Homo sapiens, UniProt P10398); experiment: Kinase activity assay, A-Raf
# T2 sequence (P10398 1-606): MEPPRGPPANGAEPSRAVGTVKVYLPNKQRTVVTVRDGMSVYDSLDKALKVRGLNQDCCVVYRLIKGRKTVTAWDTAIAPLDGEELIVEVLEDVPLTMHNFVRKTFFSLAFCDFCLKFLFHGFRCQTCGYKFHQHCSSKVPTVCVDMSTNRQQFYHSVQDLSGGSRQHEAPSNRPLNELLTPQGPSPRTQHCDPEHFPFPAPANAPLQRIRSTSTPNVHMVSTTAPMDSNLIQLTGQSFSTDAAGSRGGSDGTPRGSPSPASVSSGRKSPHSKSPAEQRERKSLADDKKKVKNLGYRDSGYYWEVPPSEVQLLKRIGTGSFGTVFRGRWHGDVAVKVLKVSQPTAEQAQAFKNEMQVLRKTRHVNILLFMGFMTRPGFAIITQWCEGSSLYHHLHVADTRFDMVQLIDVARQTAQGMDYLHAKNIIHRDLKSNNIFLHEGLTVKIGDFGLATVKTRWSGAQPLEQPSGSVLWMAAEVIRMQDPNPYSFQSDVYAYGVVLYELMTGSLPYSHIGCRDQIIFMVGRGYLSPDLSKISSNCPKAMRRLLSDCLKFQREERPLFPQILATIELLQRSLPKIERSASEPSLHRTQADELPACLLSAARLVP
# Src = Src (Homo sapiens, UniProt P12931); experiment: Kinase activity assay, Src
# PI3Kα = PI3Kα (Homo sapiens, UniProt P42336); experiment: Kinase activity assay, PI3Kα
# MAP4K4, sequence (O95819 whole entry): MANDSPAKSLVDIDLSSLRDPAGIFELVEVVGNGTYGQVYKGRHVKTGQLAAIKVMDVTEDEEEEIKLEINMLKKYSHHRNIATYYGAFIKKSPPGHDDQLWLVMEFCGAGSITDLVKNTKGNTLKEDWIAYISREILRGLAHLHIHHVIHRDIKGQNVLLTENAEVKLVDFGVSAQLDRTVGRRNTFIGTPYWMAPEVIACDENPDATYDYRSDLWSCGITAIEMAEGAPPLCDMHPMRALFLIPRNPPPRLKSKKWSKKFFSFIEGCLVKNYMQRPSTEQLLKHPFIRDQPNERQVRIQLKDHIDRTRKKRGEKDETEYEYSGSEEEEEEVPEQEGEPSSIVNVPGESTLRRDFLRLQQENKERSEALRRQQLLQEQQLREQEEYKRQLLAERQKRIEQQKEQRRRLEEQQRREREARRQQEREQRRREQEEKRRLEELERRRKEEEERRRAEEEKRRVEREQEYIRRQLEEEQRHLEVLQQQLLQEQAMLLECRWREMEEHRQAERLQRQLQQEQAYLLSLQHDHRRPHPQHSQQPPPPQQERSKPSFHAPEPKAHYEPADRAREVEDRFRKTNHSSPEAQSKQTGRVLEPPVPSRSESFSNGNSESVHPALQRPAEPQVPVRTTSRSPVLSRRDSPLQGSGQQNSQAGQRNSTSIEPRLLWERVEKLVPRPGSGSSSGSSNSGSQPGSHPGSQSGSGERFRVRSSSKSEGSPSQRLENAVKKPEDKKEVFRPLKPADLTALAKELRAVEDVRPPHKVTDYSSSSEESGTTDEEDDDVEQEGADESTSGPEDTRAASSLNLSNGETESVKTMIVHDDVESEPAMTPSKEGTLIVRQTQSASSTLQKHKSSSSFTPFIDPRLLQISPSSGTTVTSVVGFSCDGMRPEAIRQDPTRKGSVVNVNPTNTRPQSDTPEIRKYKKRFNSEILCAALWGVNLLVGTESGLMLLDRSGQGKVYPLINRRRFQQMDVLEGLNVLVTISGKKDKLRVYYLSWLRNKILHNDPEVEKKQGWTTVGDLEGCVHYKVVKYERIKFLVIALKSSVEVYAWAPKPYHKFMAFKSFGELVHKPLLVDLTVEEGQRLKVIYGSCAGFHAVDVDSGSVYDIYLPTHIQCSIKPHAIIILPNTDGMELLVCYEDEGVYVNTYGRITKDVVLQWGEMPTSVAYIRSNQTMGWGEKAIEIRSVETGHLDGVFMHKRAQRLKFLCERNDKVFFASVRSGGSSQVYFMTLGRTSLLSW
# Kdr, sequence (P35968 20-1356): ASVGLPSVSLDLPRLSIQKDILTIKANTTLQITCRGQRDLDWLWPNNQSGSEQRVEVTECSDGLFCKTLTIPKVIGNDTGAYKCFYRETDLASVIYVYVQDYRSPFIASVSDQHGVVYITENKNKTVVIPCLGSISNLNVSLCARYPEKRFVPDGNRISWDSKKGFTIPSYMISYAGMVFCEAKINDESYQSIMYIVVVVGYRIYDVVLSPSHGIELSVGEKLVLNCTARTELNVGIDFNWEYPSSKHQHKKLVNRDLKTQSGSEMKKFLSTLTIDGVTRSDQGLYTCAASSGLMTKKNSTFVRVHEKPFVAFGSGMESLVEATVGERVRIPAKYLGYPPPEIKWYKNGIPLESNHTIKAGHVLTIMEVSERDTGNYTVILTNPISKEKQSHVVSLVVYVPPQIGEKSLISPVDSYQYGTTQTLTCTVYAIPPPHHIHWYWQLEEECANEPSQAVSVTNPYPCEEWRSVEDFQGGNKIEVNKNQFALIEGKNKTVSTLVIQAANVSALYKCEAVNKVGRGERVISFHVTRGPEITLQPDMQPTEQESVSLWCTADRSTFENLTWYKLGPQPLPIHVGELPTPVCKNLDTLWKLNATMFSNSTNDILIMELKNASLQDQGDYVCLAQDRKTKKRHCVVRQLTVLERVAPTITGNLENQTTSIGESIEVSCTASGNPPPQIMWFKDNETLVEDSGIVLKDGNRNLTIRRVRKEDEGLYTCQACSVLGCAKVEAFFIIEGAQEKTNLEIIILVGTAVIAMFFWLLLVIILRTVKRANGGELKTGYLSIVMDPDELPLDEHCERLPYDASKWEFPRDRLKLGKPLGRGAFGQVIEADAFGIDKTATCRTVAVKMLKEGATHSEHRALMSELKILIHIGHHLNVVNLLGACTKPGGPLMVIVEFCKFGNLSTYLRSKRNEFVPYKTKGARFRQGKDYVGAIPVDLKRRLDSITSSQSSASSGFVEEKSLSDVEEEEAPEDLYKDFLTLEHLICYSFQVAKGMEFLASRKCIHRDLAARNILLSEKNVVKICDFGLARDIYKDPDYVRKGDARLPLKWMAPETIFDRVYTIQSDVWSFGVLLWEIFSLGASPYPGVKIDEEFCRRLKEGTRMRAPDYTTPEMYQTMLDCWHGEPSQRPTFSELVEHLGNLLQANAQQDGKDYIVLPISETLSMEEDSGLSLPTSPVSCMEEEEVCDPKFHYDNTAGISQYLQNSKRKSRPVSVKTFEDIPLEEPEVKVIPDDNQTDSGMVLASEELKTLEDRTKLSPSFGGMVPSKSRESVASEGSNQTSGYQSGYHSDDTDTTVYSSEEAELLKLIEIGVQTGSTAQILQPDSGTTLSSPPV
# Fms, sequence (P07333 20-972): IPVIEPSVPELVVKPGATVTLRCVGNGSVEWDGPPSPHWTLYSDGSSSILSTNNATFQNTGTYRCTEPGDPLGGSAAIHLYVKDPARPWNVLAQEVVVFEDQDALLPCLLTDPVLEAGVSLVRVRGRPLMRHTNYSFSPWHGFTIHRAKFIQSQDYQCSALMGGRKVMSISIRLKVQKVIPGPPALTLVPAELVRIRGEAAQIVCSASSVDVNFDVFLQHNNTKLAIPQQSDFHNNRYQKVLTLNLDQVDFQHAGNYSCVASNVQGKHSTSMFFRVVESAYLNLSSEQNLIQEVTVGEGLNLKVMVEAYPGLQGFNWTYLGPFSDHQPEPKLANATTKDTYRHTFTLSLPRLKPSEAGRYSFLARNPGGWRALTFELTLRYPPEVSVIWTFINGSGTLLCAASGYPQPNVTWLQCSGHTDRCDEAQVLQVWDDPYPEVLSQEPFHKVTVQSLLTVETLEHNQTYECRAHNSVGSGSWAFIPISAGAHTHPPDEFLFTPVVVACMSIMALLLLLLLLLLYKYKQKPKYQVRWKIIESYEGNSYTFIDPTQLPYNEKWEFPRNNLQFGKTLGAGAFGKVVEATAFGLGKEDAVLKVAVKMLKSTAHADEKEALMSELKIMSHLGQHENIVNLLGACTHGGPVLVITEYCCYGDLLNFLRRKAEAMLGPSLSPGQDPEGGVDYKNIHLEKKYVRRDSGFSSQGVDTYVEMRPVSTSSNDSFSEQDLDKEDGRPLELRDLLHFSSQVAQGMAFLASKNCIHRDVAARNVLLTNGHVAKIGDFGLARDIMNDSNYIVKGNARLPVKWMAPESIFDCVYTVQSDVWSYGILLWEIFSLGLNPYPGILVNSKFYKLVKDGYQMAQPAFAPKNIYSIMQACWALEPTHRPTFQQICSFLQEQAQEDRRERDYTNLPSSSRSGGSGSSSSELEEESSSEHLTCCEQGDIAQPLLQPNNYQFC
# Kit, sequence (P10721 26-976): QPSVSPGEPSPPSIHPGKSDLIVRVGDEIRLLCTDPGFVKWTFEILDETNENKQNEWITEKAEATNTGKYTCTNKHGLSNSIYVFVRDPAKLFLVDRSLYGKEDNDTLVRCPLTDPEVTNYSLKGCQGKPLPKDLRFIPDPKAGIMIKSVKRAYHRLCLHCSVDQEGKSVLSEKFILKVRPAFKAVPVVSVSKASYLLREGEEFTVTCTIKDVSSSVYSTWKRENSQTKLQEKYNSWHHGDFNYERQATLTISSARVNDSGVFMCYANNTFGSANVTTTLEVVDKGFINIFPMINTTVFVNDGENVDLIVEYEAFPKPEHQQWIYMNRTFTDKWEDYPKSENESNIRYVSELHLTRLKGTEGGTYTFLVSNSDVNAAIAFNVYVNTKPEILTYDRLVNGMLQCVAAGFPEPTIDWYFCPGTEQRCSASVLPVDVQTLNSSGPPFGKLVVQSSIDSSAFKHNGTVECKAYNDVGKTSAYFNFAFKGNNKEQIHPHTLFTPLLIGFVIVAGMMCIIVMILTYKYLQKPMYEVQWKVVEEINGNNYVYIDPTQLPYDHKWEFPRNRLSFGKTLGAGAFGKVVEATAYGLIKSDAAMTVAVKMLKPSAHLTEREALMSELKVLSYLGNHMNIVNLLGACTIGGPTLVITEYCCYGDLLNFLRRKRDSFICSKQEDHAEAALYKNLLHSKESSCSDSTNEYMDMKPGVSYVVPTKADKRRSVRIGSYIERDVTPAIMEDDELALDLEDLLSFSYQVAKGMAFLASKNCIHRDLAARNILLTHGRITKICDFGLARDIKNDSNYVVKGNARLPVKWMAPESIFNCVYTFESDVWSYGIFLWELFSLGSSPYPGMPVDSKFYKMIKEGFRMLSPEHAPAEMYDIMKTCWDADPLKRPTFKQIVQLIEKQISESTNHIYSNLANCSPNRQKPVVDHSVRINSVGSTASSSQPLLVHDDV
# Src, sequence (P12931 whole entry): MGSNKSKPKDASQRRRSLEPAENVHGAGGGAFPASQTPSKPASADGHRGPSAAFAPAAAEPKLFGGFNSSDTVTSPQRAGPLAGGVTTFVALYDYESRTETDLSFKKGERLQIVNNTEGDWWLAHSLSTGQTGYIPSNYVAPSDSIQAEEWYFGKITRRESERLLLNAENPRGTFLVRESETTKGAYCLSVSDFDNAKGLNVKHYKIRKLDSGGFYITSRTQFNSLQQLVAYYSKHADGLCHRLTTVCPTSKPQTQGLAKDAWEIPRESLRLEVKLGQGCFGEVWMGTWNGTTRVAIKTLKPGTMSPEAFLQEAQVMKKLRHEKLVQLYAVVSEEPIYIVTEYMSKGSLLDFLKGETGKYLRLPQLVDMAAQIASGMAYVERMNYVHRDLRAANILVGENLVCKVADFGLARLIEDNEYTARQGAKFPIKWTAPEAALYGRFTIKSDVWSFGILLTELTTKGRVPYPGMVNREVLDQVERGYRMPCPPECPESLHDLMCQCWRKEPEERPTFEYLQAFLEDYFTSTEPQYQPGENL
Compound,IC50 (C-Raf),IC50 (Kit),IC50 (Kdr),IC50 (TEC),IC50 (Btk),IC50 (B-Raf V600E),IC50 (B-Raf),IC50 (MAP4K4),IC50 (Fms),IC50 (A-Raf),IC50 (Src),IC50 (PI3Kα)
"Cn1cc(-c2cnc3[nH]cc(C(=O)c4cc(NS(=O)(=O)c5cccnc5)ccc4F)c3c2)cn1 [P-2140, Pyridine-3-sulfonic acid{4-fluoro-3-[5-(1-methyl-1H-pyrazol-4-yl)-1H-pyrrolo[2,3-b]pyridine-3-carbonyl]-phenyl}-amide]",≤ 10 µM,≤ 10 µM,≤ 10 µM,≤ 10 µM,≤ 10 µM,≤ 10 µM,≤ 10 µM,≤ 10 µM,≤ 10 µM,–,≤ 10 µM,–
"COc1cnc2[nH]cc(C(=O)c3cccc(NS(=O)(=O)c4cccnc4)c3)c2c1 [P-2142, Pyridine-3-sulfonic acid [3-(5-methoxy-1H-pyrrolo[2,3-b]pyridine-3-carbonyl)-phenyl]-amide]",–,≤ 10 µM,≤ 10 µM,≤ 10 µM,≤ 10 µM,–,≤ 10 µM,≤ 10 µM,≤ 10 µM,–,≤ 10 µM,–
"Cn1cc(-c2cnc3[nH]cc(C(=O)c4cccc(NS(=O)(=O)c5cccnc5)c4)c3c2)cn1 [P-2144, Pyridine-3-sulfonic acid {3-[5-(1-methyl-1H-pyrazol-4-yl)-1H-pyrrolo[2,3-b]pyridine-3-carbonyl]-phenyl}-amide]",–,≤ 10 µM,≤ 10 µM,≤ 10 µM,≤ 10 µM,–,≤ 10 µM,≤ 10 µM,≤ 10 µM,–,≤ 10 µM,–
"CS(=O)(=O)c1cccc(-c2cnc3[nH]cc(C(=O)c4cccc(NS(=O)(=O)c5cccnc5)c4)c3c2)c1 [P-2149, Pyridine-3-sulfonic acid {3-[5-(3-methanesulfonyl-phenyl)-1H-pyrrolo[2,3-b]pyridine-3-carbonyl]-phenyl}-amide]",–,≤ 10 µM,≤ 10 µM,–,–,–,≤ 10 µM,≤ 10 µM,≤ 10 µM,–,≤ 10 µM,≤ 10 µM
"CS(=O)(=O)c1cccc(-c2cnc3[nH]cc(C(=O)c4cc(NS(=O)(=O)C5CCCCC5)ccc4F)c3c2)c1 [P-2444, Cyclohexanesulfonic acid {4-fluoro-3-[5-(3-methanesulfonyl-phenyl)-1H-pyrrolo[2,3-b]pyridine-3-carbonyl]-phenyl}-amide]",≤ 10 µM,≤ 10 µM,≤ 10 µM,≤ 10 µM,≤ 10 µM,≤ 10 µM,≤ 10 µM,≤ 10 µM,≤ 10 µM,–,≤ 10 µM,–
"CS(=O)(=O)Nc1cccc(-c2cnc3[nH]cc(C(=O)c4cc(NS(=O)(=O)C5CCCCC5)ccc4F)c3c2)c1 [P-2446, Cyclohexanesulfonic acid {4-fluoro-3-[5-(3-methanesulfonylamino-phenyl)-1H-pyrrolo[2,3-b]pyridine-3-carbonyl]-phenyl}-amide]",≤ 10 µM,≤ 10 µM,≤ 10 µM,≤ 10 µM,≤ 10 µM,≤ 10 µM,–,≤ 10 µM,≤ 10 µM,–,≤ 10 µM,–
"CS(=O)(=O)Nc1cccc(-c2cnc3[nH]cc(C(=O)c4cc(NS(=O)(=O)C5CCCC5)ccc4F)c3c2)c1 [P-2447, Cyclopentanesulfonic acid {4-fluoro-3-[5-(3-methanesulfonylamino-phenyl)-1H-pyrrolo[2,3-b]pyridine-3-carbonyl]-phenyl}-amide]",≤ 10 µM,≤ 10 µM,≤ 10 µM,≤ 10 µM,≤ 10 µM,≤ 10 µM,≤ 10 µM,≤ 10 µM,≤ 10 µM,–,≤ 10 µM,–
"Cc1cnc2[nH]cc(C(=O)c3cc(NS(=O)(=O)C4CCCC4)ccc3F)c2c1 [P-2448, Cyclopentanesulfonic acid [4-fluoro-3-(5-methyl-1H-pyrrolo[2,3-b]pyridine-3-carbonyl)-phenyl]-amide]",–,≤ 10 µM,≤ 10 µM,≤ 10 µM,≤ 10 µM,–,–,≤ 10 µM,≤ 10 µM,–,≤ 10 µM,–
"COc1cnc2[nH]cc(C(=O)c3cccc(NS(=O)(=O)C4CCCCC4)c3)c2c1 [P-2460, Cyclohexanesulfonic acid [3-(5-methoxy-1H-pyrrolo[2,3-b]pyridine-3-carbonyl)-phenyl]-amide]",–,≤ 10 µM,≤ 10 µM,≤ 10 µM,≤ 10 µM,–,–,≤ 10 µM,≤ 10 µM,–,≤ 10 µM,–

# Further lines, results first:
IC50 (C-Raf),IC50 (Kit),IC50 (Kdr),IC50 (TEC),IC50 (Btk),IC50 (B-Raf V600E),IC50 (B-Raf),IC50 (MAP4K4),IC50 (Fms),IC50 (A-Raf),IC50 (Src),IC50 (PI3Kα),Compound
≤ 10 µM,≤ 10 µM,≤ 10 µM,≤ 10 µM,≤ 10 µM,≤ 10 µM,≤ 10 µM,≤ 10 µM,≤ 10 µM,≤ 10 µM,≤ 10 µM,–,"COc1ccnc2[nH]cc(C(=O)c3c(F)ccc(NS(=O)(=O)c4cc(F)ccc4F)c3F)c12 [P-2022, N-[2,4-Difluoro-3-(4-methoxy-1H-pyrrolo[2,3-b]pyridine-3-carbonyl)-phenyl]-2,5-difluoro-benzenesulfonamide]"
≤ 10 µM,≤ 10 µM,≤ 10 µM,≤ 10 µM,≤ 10 µM,≤ 10 µM,≤ 10 µM,–,≤ 10 µM,≤ 10 µM,≤ 10 µM,–,"C#Cc1cnc2[nH]cc(C(=O)c3c(F)ccc(NS(=O)(=O)CCC)c3F)c2c1 [P-2260, Propane-1-sulfonic acid [3-(5-ethynyl-1H-pyrrolo[2,3-b]pyridine-3-carbonyl)-2,4-difluoro-phenyl]-amide]"
≤ 10 µM,≤ 10 µM,≤ 10 µM,≤ 10 µM,≤ 10 µM,≤ 10 µM,≤ 10 µM,–,–,≤ 10 µM,≤ 10 µM,–,"Cc1cnc2[nH]cc(C(=O)c3c(F)ccc(NS(=O)(=O)N4CCCC4)c3F)c2c1 [P-2379, Pyrrolidine-1-sulfonic acid [2,4-difluoro-3-(5-methyl-1H-pyrrolo[2,3-b]pyridine-3-carbonyl)-phenyl]-amide]"
≤ 10 µM,≤ 10 µM,≤ 10 µM,≤ 10 µM,≤ 10 µM,≤ 10 µM,≤ 10 µM,≤ 10 µM,≤ 10 µM,–,≤ 10 µM,–,"CN(C)S(=O)(=O)Nc1ccc(F)c(C(=O)c2c[nH]c3nccc(Cl)c23)c1F [P-2383, N,N-dimethylamino-sulfonic acid [3-(4-chloro-1H-pyrrolo[2,3-b]pyridine-3-carbonyl)-2,4-difluoro-phenyl]-amide]"
≤ 10 µM,–,≤ 10 µM,≤ 10 µM,≤ 10 µM,≤ 10 µM,≤ 10 µM,–,–,≤ 10 µM,≤ 10 µM,–,"N#Cc1ccnc2[nH]cc(C(=O)c3c(F)ccc(NS(=O)(=O)N4CCCC4)c3F)c12 [P-2394, Pyrrolidine-1-sulfonic acid [3-(4-cyano-1H-pyrrolo[2,3-b]pyridine-3-carbonyl)-2,4-difluoro-phenyl]-amide]"
